# Assay results from US8324173B2, “Peptides useful as dual caspase-2/-6 inhibitors and their biological applications” (Chiesi Farmaceutici S.p.A., priority 2004, dated 2012).
# Peptide text beside a SMILES is read from it.
# Experiments:
# Assay type in all cases: biochemical
# [1] = biological target: T1, human recombinant caspase-2 (Homo sapiens, UniProt P42575); assay: In vitro caspase-2 cleavage assay (Ac-VDVAD-AMC substrate); parameters: key to Group (pattern of caspase-2 inhibition curve): group 1 referred to inhibitors that were relatively more active than VDVAD(SEQ ID NO:9)-based inhibitors against caspase-2 at lower doses, but with similar IC50 values; group 2 referred to VDVAD(SEQ ID NO:9)-based inhibitor with characteristic sigmoid dose-response; group 3 referred to pentapetidic-based inhibitors that were less active than VDVAD(SEQ ID NO:9)-based inhibitors against caspase-2 at lower doses and that exhibited higher IC50; conditions: for Group (pattern of caspase-2 inhibition curve) / IC50: Table 4; for IC50: 30 min pre-incubation, 2 h at 37° C.
# T1 construct: purchased BIOMOL
# T1 sequence (P42575 170-333 limits assumed): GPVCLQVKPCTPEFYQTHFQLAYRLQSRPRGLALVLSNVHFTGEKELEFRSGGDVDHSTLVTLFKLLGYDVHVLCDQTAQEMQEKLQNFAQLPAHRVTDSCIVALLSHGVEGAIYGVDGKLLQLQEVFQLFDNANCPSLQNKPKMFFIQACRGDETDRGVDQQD
# T1 sequence (P42575 348-452 limits assumed): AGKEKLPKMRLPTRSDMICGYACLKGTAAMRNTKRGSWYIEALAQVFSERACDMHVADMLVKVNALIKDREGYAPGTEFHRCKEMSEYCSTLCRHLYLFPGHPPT
# Protocol: Newly designed inhibitors (Ac-LDEAD(SEQ ID NO:7)-CHO, Ac-VDEAD(SEQ ID NO:1)-CHO . . . ) were compared to Ac-VDVAD(SEQ ID NO:9)-CHO in in vitro caspase-2 cleavage assay according to the following protocol (FIG. 8). Human recombinant caspases (25-50 U; QuantiZyme™ Assay System, BIOMOL, Plymouth, Pa., USA) were pre-incubated 30 min with inhibitors (0.005-2 μM) in final 100 μl final assay buffer (50 mM HEPES, pH 7.4, 100 mM NaCl, 0.1% CHAPS, 10 mM DTT, 1 mM EDTA, 10% glycerol) and then mixed with 200 μM of the fluorogenic caspase substrates (BIOMOL) Ac-VDVAD(SEQ ID NO:9)-AMC. An IC50 value corresponding to the concentration that could inhibit 50% of caspase activity was determined from the dose-response sigmoid curve. The cleavage of AMC-based substrates by human recombinant caspases 1-10 was measured after 2 h at 37° C. on a fluorescence microplate reader by monitoring emission at 510 nm upon excitation at 405 nm.
# other caspases = assay: In vitro cleavage assay on panel of human recombinant caspases (cross-reaction); conditions: at high doses
# Protocol: Newly designed inhibitors (Ac-LDEAD(SEQ ID NO:7)-CHO, Ac-VDEAD(SEQ ID NO:1)-CHO) . . . ) were tested against a large panel of caspase (1 to 10) during in vitro cleavage assay according to the following protocol. Human recombinant caspases (25-50 U; Biomol) were pre-incubated 30 min with inhibitors (0.005-2 μM) in final 100 μl final assay buffer (50 mM HEPES, pH 7.4, 100 mM NaCl, 0.1% CHAPS, 10 mM DTT, 1 mM EDTA, 10% glycerol) and then mixed with 200 μM of their specific fluorogenic caspase substrates (BIOMOL) (Ac-YVAD(SEQ ID NO:23)-AMC (caspase-1), Ac-VDVAD(SEQ ID NO:9)-AMC (caspase-2), Ac-DEVD(SEQ ID NO:24)-AMC (caspase-3/-7), Ac-VEID(SEQ ID NO:25)-AMC (caspase-6), Ac-IETD(SEQ ID NO:26)-AMC (caspase-81-10)1Ac-LEHD(SEQ ID NO:27)-AMC (caspase-9). The cleavage of AMC-based substrates by human recombinant caspases 1-10 was measured after 2 h at 37° C. on a fluorescence microplate reader by monitoring emission at 510 nm upon excitation at 405 nm.
# [2] = biological target: T2, rat recombinant calpain II (Rattus norvegicus, UniProt Q07009); assay: Calpain II inhibition assay; conditions: 2 μM
# T2 construct: purchased Biomol
# T2 sequence (Q07009 1-700): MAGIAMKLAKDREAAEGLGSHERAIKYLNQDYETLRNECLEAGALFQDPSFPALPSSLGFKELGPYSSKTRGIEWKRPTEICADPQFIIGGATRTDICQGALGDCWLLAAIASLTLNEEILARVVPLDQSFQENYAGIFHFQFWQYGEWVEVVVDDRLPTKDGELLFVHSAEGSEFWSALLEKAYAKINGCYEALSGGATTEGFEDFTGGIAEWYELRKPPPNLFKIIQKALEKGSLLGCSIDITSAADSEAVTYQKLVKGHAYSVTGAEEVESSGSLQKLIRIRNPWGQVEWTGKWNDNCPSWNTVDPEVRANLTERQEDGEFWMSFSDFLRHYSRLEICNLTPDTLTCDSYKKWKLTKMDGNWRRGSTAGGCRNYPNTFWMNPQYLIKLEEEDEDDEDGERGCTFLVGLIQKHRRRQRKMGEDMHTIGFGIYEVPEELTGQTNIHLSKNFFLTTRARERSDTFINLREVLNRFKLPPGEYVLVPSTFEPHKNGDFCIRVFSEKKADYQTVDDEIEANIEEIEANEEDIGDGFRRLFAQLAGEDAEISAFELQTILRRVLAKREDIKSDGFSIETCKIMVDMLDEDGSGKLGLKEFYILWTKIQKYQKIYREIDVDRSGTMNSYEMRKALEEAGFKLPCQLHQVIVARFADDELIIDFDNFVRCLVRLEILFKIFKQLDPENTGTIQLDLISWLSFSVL
# T2 sequence (Q64537 87-270 partner limits assumed): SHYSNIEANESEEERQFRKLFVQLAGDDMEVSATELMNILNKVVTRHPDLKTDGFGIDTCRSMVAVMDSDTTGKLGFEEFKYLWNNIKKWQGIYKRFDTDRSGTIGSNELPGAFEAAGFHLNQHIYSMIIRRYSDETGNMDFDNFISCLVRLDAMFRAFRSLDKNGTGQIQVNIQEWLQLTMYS
# Protocol: (§1) Additionally, specificity of newly designed inhibitors was checked against calpains and Granzyme B. Human recombinant calpain I (0.8 U) and rat recombinant calpain II (20 U) (both from Biomol) were pre-incubated 30 min with inhibitors in final 100 μl final assay buffer (50 mM HEPES, pH 7.4, 100 mM NaCl, 0.1% CHAPS, 5 mM CaCl2, 1 mM EDTA, 10% glycerol, 2 mM β-mercaptoethanol) and then mixed with 20 μM of the fluorogenic calpain substrates I or II (Calbiochem), respectively. ALLN and ALLM (1 μM) were internal controls for inhibition. The cleavage of substrates by recombinant enzymes was measured after 2 h at 37° C. on a fluorescence microplate reader by monitoring emission at 460 nm upon excitation at 380 nm for calpain I or emmission at 530 nm upon excitation at 485 nm for calpain II. Human granzyme B (50 U; Biomol) was pre-incubated 10 min with inhibitors in final 100 μl final granzyme assay buffer (Biomol) and then mixed with 400 μM of Ac-IEPD-pNA (Biomol). 3,4 DCIC (1 μM) was used as positive control for inhibition. The cleavage of substrate was measured after 1 h at 37° C. on a spectrophotometer at […]. Ac-IEPD-pNA is DEQ ID NO:29.
# Human granzyme B = biological target: T3, Human granzyme B (Homo sapiens, UniProt P10144); assay: Granzyme B inhibition assay (Ac-IEPD-pNA); conditions: 2 μM
# T3 construct: purchased Biomol
# Protocol: as §1
# [3] = biological target: T4, Human recombinant calpain I (Homo sapiens, UniProt P07384); assay: Calpain I inhibition assay; conditions: 2 μM
# T4 construct: purchased Biomol
# T4 sequence (P07384 1-714): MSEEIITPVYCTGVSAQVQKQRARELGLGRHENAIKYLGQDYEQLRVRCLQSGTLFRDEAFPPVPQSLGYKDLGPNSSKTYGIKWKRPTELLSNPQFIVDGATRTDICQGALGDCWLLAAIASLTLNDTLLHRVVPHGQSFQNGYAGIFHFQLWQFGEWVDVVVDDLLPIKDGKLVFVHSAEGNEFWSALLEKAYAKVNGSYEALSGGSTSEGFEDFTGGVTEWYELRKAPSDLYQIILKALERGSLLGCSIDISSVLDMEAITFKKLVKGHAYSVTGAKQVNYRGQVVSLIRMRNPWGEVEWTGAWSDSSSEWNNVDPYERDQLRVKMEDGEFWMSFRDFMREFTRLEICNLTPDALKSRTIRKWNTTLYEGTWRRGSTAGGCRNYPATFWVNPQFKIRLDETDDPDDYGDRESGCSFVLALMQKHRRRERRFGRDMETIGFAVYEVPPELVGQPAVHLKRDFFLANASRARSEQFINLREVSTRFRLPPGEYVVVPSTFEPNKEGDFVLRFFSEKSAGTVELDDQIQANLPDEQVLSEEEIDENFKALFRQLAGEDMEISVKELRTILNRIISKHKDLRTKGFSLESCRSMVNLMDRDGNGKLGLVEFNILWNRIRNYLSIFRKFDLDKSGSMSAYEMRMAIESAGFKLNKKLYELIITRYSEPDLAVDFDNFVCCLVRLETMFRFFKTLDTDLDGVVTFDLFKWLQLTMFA
# T4 sequence (P04632 1-268 partner): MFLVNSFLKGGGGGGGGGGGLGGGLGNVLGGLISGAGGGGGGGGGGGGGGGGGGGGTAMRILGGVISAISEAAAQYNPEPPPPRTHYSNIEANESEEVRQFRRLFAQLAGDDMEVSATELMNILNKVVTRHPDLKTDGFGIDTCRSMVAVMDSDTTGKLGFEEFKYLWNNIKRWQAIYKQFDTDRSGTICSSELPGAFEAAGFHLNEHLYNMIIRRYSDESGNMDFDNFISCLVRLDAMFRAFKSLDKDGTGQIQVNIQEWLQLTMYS
# Protocol: as §1
# T3 sequence (P10144 21-247): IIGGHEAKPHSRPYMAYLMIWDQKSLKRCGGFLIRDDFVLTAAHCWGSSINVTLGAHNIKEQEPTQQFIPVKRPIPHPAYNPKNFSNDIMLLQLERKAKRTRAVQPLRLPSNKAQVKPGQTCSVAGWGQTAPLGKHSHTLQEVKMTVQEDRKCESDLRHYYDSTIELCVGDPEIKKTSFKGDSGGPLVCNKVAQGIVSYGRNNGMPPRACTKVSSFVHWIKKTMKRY
structure (smiles),measurement,setting,value
"CC(=O)N[C@H](C(=O)N[C@@H](CC(=O)O)C(=O)N[C@H](C(=O)N[C@@H](C)C(=O)N[C@H](C=O)CC(=O)O)C(C)C)C(C)C [Compound 8, Ac-VDVAD-cho, reference compound] (Ac-VDVAD-aldehyde)",Group (pattern of caspase-2 inhibition curve),[1],2
same,VDVAD-AMC cleavage by caspase-2,"[1]; recombinant caspase-2, FIG. 16",blocked
same,inhibition of other caspases (cross-reaction),other caspases,less than 20%
"CC(=O)N[C@@H](CC(C)C)C(=O)N[C@@H](CC(=O)O)C(=O)N[C@@H](CCC(=O)O)C(=O)N[C@@H](C)C(=O)N[C@H](C=O)CC(=O)O [Compound 14, Ac-LDEAD(SEQ ID NO:7)-cho] (Ac-LDEAD-aldehyde)",inhibition of calpain II,[2],not strong inhibitors
same,Group (pattern of caspase-2 inhibition curve),[1],1
same,IC50,[1],85 ± 6 nM
same,inhibition of granzyme B,Human granzyme B,not strong inhibitors
same,inhibition of calpain I,[3],not strong inhibitors
"CC(=O)N[C@H](C(=O)N[C@@H](CC(=O)O)C(=O)N[C@@H](CCC(=O)O)C(=O)N[C@@H](C)C(=O)N[C@H](C=O)CC(=O)O)C(C)C [Compound 20, Ac-VDEAD(SEQ ID NO:1)-cho] (Ac-VDEAD-aldehyde)",inhibition of calpain II,[2],not strong inhibitors
same,Group (pattern of caspase-2 inhibition curve),[1],1
same,IC50,[1],85 ± 5 nM
same,inhibition of granzyme B,Human granzyme B,not strong inhibitors
same,inhibition of calpain I,[3],not strong inhibitors
